Experiments:
[1] = tested on: purified recombinant human LOXL2; test: Amplex Red assay of LOXL2 enzymatic activity; type: biochemical
Description: A mouse anti-human LOXL2 antibody (AB0023) was obtained by immunization with full-length LOXL2 protein and purified by SEC-HPLC (Tosoh TSKGEL G3000SWXL 7.8×300). Analytical size exclusion chromatography was used to assess antibody stability and purity. Purified AB0023 was run on SDS-PAGE Coomassie (Invitrogen BT 4-12% Gels) reducing and non-reducing gels to assess purity. Potency was examined by ELISA to determine Kd, and effect on LOXL2 enzymatic activity was determined using an Amplex Red Assay (Molecular Probes/Invitrogen, Carlsbad, Calif.). Antibody concentration was measured by absorbance at 280 nm using an Extinction Coefficient Abs 0.1% of 1.4. Identity was assayed by isoelectric focusing (Invitrogen pH 3-10 IEF Gels). For safety analysis, endotoxin levels were measured at a sensitivity range of 0.01-1 EU/ml (Charles River EndoSafe PTS).

[2] = tested on: MCF7 cells; test: Induction of EMT-like phenotype by LOXL2-containing conditioned media (rhodamine-phalloidin staining); type: cell-based; details: MDA-MB231 or Hs-578t conditioned media; BAPN up to 2 mM
Description: Cells were seeded at 80% confluency, in an 8-chambered slide, 24 hours prior to the day of staining. After 24 hours, media was aspirated and the chambers were washed with PBS. Cells were then fixed with 4% Parafomaldehyde (PFA) for 20 minutes at room temperature and then permeabilized with 0.5% Saponin (JT Baker, Phillipsburg, N.J.) for 5 minutes at room temperature. Cells were then stained for 15 minutes at room temperature with a 1:100 dilution of rhodamine phalloidin (Invitrogen, Carlsbad, Calif.). Slides were mounted with Vectashield (Vector Laboratories, Burlingame, Calif.).
MCF7 or SW620 cells were seeded at 50,000 cells per well of an 8-chambered culture slide in HGDMEM (high-glucose Dulbecco's modified Eagle's medium containing 4.5 g/l glucose)+10% FBS, 2 mM L-glutamine, 24 hours prior to being exposed to conditioned medium (CM). 500 uls of fresh conditioned medium from MDA MB 231 cells was added to the chambers containing MCF7 cells. The cells were incubated with the CM for 48-96 hours. Conditioned medium from MCF7 or SW620 cells was used as a negative control. After 48-96 hours incubation with CM, the cells were stained with rhodamine-phalloidin as described above.

[3] = tested on: MDA-MB-435 established primary tumors; test: MDA-MB-435 established primary tumor xenograft model; type: in vivo, mouse; details: independent study; AB0023 5 mg/kg twice per week, BAPN 100 mg/kg daily
[4] = tested on: MDA-MB-435 established primary tumors; test: as above; type: in vivo, mouse; parameters: reduction in activated TAFs assessed by aSMA signal / reduction in VEGF signal versus vehicle-treated tumors / reduction in SDF-1/CXCL12 signal / reduction in LOXL2 signal: concentration or dose not given beside the values
Description: To provide growing tumor tissue stock for subsequent orthotopic implantation, five- to six-week-old nude mice (NCr nu/nu) were injected subcutaneously with 2×10^6 MDA-MB-435-GFP cells (Anticancer, Inc., San Diego, Calif.) on the right flank. For this purpose, cultures of MDA-MB-435-GFP cells were harvested and dissociated by trypsinization, washed three times with cold serum-containing medium, and then kept on ice until injection. Cells were injected into the subcutaneous space of the flank of the animal in a total volume of 0.1 ml, within 30 min of harvesting. The nude mice were sacrificed to harvest tumor tissue 4 to 6 weeks after tumor cell injection for surgical orthotopic implantation (SOI) of tumor fragments.
Tumor pieces (˜1 mm^3), extracted from subcutaneously-growing GFP-expressing breast tumors, were implanted by surgical orthotopic implantation (SOI) on the breast of female nude mice (NCr nu/nu). Treatments with AB0023 (anti-LOXL2 monoclonal antibody), M64 (anti-LOX monoclonal antibody) and vehicle (all via intraperitoneal injection) and with Taxotere (by intravenous injection) were initiated when the average primary tumor volume reached 75 mm^3. Mice were administered the antibodies at a dose of 30 mg/kg twice a week for 28 days and Taxotere, at 10 mg/kg, was administered once a week for 3 weeks.
Body weight and tumor size were recorded weekly. At the conclusion of the study, mice were sacrificed by cervical dislocation after being anesthetized with carbon dioxide. Primary breast tumors were imaged, harvested, cut in half symmetrically and snap-frozen for histological and immunohistochemical analyses.
The solutions used for the immunohistochemistry (IHC) protocols were obtained from Biocare Medical (Concord, Calif.) unless otherwise stated. All procedures were performed at room temperature. Slides were fixed with 4% PFA for 10 minutes and were subsequently treated with Peroxidazed-1 (Biocare Medical, Concord, Calif.) for 5 minutes. Then, the slides were background blocked with SNIPER (Biocare Medical, Concord, Calif.) for 10 minutes. Primary antibody (2-5 ug/ml final concentration) was diluted in Da Vinci Green Universal Diluent and applied to slides for 30 minutes. Slides were then rinsed in PBS-Tween-20. The Mach2 polymer kit was used for antigen detection by adding rabbit probe for 30 minutes. DAB chromagen was added to the slides for 3-5 minutes, then slides were rinsed once with deionized water. The slides were then counter-stained with hematoxylin, followed by dehydration with graded alcohol. The slides were mounted with entellan mounting medium (Electron Microscopy Sciences, Hatfield, Pa.).

[5] = Pilot repeat-dose studies in cynomolgus monkeys; type: in vivo; details: repeat dosing at 100 mg/kg
[6] = target: T1, lysyl oxidase-like 3 (LOXL3) (UniProt P58215 26-753, limits assumed); test: Western blot probed with AB0023 [Cont. 2) panel m]
T1 construct: Member of 'other lysyl oxidase-type enzymes'; also called LOR-2
T1 sequence (looked up): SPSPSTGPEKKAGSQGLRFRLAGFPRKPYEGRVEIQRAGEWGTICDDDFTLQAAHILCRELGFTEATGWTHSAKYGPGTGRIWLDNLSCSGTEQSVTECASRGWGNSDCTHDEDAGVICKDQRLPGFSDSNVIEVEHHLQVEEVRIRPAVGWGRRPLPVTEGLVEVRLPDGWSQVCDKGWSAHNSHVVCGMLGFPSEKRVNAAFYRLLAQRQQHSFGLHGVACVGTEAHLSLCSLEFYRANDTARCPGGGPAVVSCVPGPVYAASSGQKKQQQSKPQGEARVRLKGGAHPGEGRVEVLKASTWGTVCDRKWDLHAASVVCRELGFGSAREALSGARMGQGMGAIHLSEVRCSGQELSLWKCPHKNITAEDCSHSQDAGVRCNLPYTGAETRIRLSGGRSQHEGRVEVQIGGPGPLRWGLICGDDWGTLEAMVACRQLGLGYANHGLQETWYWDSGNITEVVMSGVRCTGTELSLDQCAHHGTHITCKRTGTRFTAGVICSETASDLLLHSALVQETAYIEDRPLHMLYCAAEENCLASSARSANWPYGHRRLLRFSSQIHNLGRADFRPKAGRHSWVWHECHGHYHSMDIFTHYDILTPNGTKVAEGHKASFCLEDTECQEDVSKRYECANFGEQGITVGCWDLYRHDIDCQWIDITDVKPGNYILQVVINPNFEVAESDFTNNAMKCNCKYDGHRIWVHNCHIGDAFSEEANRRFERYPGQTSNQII

[7] = target: T2, lysyl oxidase (LOX) (UniProt P28300 169-417, limits assumed); test: Western blot probed with AB0023 [Cont. 2) panel m]
T2 construct: Member of 'other lysyl oxidase-type enzymes'
T2 sequence (looked up): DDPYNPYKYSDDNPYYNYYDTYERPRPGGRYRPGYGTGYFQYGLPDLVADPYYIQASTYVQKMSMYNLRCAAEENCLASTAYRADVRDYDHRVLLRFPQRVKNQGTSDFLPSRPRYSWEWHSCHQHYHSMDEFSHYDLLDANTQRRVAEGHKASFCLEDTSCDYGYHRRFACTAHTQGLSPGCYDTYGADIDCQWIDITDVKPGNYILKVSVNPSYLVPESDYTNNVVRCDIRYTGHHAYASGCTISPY

[8] = target: T3, lysyl oxidase-like 4 (LOXL4) (UniProt Q96JB6 25-756, limits assumed); test: Western blot probed with AB0023 [Cont. 2) panel m]
T3 construct: Member of 'other lysyl oxidase-type enzymes'
T3 sequence (looked up): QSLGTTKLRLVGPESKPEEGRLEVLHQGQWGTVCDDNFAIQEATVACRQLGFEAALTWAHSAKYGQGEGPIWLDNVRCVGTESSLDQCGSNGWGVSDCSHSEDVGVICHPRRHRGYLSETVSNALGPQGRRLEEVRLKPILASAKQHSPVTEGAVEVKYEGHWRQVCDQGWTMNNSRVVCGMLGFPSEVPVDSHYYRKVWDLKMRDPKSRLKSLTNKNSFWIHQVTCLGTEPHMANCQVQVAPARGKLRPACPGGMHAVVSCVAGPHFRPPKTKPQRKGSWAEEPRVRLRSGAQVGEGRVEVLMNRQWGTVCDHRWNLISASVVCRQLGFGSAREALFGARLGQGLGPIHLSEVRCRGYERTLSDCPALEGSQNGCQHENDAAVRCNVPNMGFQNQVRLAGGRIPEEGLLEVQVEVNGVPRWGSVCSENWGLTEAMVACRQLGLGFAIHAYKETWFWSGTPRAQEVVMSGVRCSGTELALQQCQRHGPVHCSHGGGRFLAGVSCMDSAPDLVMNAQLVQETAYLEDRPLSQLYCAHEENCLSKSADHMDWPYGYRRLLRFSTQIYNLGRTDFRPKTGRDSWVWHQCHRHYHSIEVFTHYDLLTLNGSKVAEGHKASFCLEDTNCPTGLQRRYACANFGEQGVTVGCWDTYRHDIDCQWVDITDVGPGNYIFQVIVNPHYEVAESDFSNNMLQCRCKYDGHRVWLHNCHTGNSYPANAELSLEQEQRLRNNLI

[9] = target: T4, human lysyl oxidase-like 2 (LOXL2) (human, UniProt Q9Y4K0 26-774); test: cell-based or functional assay
T4 sequence (looked up): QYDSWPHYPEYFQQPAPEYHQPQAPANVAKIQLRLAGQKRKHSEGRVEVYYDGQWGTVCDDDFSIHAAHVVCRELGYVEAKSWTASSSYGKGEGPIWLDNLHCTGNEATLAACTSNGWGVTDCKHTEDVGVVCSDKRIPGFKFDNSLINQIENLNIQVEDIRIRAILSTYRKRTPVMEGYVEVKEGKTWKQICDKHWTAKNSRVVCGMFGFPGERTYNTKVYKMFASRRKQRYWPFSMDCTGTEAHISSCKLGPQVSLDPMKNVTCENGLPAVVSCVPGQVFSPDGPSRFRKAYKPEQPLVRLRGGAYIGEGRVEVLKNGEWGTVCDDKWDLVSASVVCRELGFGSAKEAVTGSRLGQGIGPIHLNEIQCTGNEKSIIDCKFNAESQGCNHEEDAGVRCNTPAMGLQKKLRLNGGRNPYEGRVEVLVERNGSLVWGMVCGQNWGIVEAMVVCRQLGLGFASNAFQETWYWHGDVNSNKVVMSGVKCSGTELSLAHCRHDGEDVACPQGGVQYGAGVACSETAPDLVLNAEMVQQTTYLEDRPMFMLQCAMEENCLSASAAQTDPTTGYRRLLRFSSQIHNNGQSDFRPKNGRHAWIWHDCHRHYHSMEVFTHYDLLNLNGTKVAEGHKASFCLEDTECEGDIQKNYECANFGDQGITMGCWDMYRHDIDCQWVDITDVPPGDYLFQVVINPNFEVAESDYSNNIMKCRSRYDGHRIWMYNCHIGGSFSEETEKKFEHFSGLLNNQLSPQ

## N#CCCN [BAPN, beta-aminoproprionitrile, reference compound]
[1]
  mode of inhibition of LOXL2: competitive inhibitor
[1]; in vitro
  inhibition of LOXL2 enzymatic activity: inhibited
[1]; in vitro, FIG. 8 panel D
  IC50 for inhibition of LOXL2 (in words): low nanomolar
[2]
  remodeling of the actin cytoskeleton induced by LOXL2-containing conditioned media: not inhibited
[3]
  reduction in tumor vasculature, CD31 signal: no reduction
  reduction in tumor volume after 46 days: 19%

## CC(=O)O[C@@]12CO[C@@H]1C[C@H](O)[C@@]1(C)C(=O)[C@H](O)C3=C(C)[C@@H](OC(=O)[C@H](O)[C@@H](NC(=O)OC(C)(C)C)c4ccccc4)C[C@@](O)([C@@H](OC(=O)c4ccccc4)[C@H]21)C3(C)C [Taxotere, reference compound]
[4]; mouse, in vivo
  levels of Beclin-1 (autophagy) in tumor cells: increased
[4]; tumors harvested at day 39
  reduction in Sirius red staining (crosslinked collagen, desmoplasia): No significant differences
  reduction in activated TAFs assessed by aSMA signal: No significant differences
  reduction in tumor vasculature, CD31 signal: 43%

B1: AB0024: humanized anti-LOXL2 variant of AB0023; heavy chain variable region SEQ ID NO:3, light chain SEQ ID NO:4 (antibody, listed as Mus musculus, V domains shown)
VH: QVQLVQSGAEVKKPGASVKVSCKASGYAFTYYLIEWVRQAPGQGLEWIGVINPGSGGTNYNEKFKGRATITADKSTSTAYMELSSLRSEDTAVYFCARNWMNFDYWGQGTTVTVSS
VL: DIVMTQTPLSLSVTPGQPASISCRSSKSLLHSNGNTYLYWFLQKPGQSPQFLIYRMSNLASGVPDRFSGSGSGTDFTLKISRVEAEDVGVYYCMQHLEYPYTFGGGTKVEIK
modifications: Humanized heavy chain; Humanized light chain
[1]
  mode of inhibition of LOXL2: non-competitive allosteric inhibitors
[5]
  tolerability: well tolerated

B2: anti-LOXL2 monoclonal antibody AB0023 (antibody, V domains shown)
VH: QVQLQQSGAELVRPGTSVKVSCKASGYAFTYYLIEWVKQRPGQGLEWIGVINPGSGGTNYNEKFKGKATLTADKSSSTAYMQLSSLTSDDSAVYFCARNWMNFDYWGQGTTLTVSS
VL: DIVMTQAAPSVSVTPGESVSISCRSSKSLLHSNGNTYLYWFLQRPGQSPQFLIYRMSNLASGVPDRFSGSGSGTAFTLRISRVEAEDVGVYYCMQHLEYPYTFGGGTKLEIK
notes: Mouse monoclonal antibody from a hybridoma, raised against full-length LOXL2 and purified from ascites; also called mouse anti-human LOXL2 antibody; LOXL2-specific monoclonal antibody
[6]
  binding result: no binding
[7]
  binding result: no binding
[8]
  binding result: no binding
[9]
  IC50, HUVEC tube formation assay, FIG. 4 Panel I (mean total tubule length): 33.2 nM
  apparent IC50 for inhibition of purified LOXL2 enzymatic activity: ~30 nM

Reference: patent US20110076272A1, “THERAPEUTIC METHODS AND COMPOSITIONS” (priority 2009, published 2011)
